Drawing on patent US20240400579A1, “SPIROCYCLIC MODULATORS OF CHOLESTEROL BIOSYNTHESIS AND THEIR USE FOR PROMOTING REMYELINATION” (GENENTECH, INC., priority 2021, published 2024), this text covers EC50 and Ki for 17 compounds.

As a reminder, the EC50 is the concentration needed to bring the measured effect to its halfway point. A word on the Ki: it is a dissociation constant, usually derived from enzyme kinetics or from competition with a known ligand. High values mean a looser hold on the target, low ones a stronger hold on the target.

In assay [1] the test system is zymostenol accumulation in EpiSC-derived OPCs (EBP). As to the kind of experiment: GC/MS-based sterol profiling, zymostenol accumulation. In kind it is cell-based, mouse. The following applies: Mus musculus, 24 h, 8 doses from 0.15 nM to 333 nM, read-out: mZymo GCMS EC50. On the procedure: (§1) To assess effects of treatments on OPCs, all treatments were assayed in two or more independent platings of epiblast stem cell-derived OPCs (EpiSC). EpiSC-derived OPCs were obtained using in vitro differentiation protocols and culture conditions described previously (Najm et al, 2011, Nature Methods). OPCs were expanded and frozen down in aliquots. OPCs were thawed into growth conditions for at least one passage before use in further assays.
Sterols were monitored using a modified Folch wash protocol (Hubler et al, 2018, Nature). EpiSC-derived OPCs were plated at 100,000 cells per well in PO— and laminin-coated 96-well plates in N2B27 media without growth factors. After 24 hours, cells were rinsed with saline and plates were frozen. Cholesterol-d7 standard was then added to each well before drying under nitrogen stream and derivatization with 55 μl of bis(trimethylsilyl) trifluoroacetamide. After derivatization, 2 μl were analyzed by gas chromatography/mass spectrometry using an Agilent 5973 Network Mass Selective Detector equipped with a 6890 gas chromatograph system and a HP-5MS capillary column (30 m x 0.25 mm×[…]). Samples were analyzed in full scan mode using electron impact ionization; ion fragment peaks were integrated to calculate sterol abundance, and quantitation was relative to cholesterol-d7. The following ion fragments were used to quantitate each metabolite: cholesterol-d7 (465), FF-Mas (482), cholesterol (368), zymostenol (458), zymosterol (456), Desmosterol (456, 343), 7-dehydrocholesterol (456, 325), lanosterol (393), lathosterol (458), 14-dehydrozymostenol (456, 351). […] All standards were obtained from Avanti Polar Lipids unless otherwise indicated. Calibration curves were generated by injecting varying concentrations of sterol standards and maintaining a fixed amount of cholesterol-D7. For normalized zymostenol accumulation results, the total amount of zymostenol measured after drug treatment was divided by the total amount of zymostenol accumulated after 24 hr treatment with 100 nM positive control reference.

For assay [2], the system named is EpiSC-derived OPCs. The experiment in a line: In vitro phenotypic screening of OPCs, MBP high-content imaging. The format is cell-based, mouse. The following applies: Mus musculus, 72 h, percentage of MBP+ oligodendrocytes; 3 days; 0.5 nM to 1000 nM; read-out: mOPC EC50. On the procedure: as §1
EpiSC-derived OPCs were grown and expanded in poly-L-ornithine (PO) and laminin-coated flasks in N2B27 media (DMEM/F12 (Gibco), N2-MAX (R&D Systems), B-27 (ThermoFisher), and GlutaMax (Gibco)) supplemented with FGF2 ([…], R&D systems, 233-FB-025) and PDGF-AA ([…], R&D systems, 233-AA-050) before harvesting for experiments. The cells were seeded onto poly-L-ornithine or poly-D-lysine coated CellCarrier Ultra plates (PerkinElmer) coated with laminin (Sigma, L2020) at a density of 150,000/cm^2 in N2B27 media without growth factors. For dose-response testing, a 1000× compound stock in dimethyl sulphoxide (DMSO) was added to assay plates, resulting in 8-point dose curves with final concentrations between 1000 nM and 0.5 nM. Positive controls and DMSO vehicle controls were included in each assay plate. Cells were incubated under standard conditions (37° C., 5% CO2) for 3 days and fixed with 4% paraformaldehyde (PFA) in phosphate buffered saline (PBS) for 20 min. Fixed plates were washed with PBS, permeabilized with 0.1% Triton X-100, and blocked with 10% donkey serum (v/v) in PBS for 40 min. Then, cells were labelled with MBP antibodies (Abcam, ab7349; 1:200) for 2 h at room temperature, washed with PBS, and stained with Alexa Fluor conjugated secondary antibodies (1:500) for 45 min. Nuclei were visualized by DAPI staining (Sigma; 1 μg/ml), followed by further PBS washes.
Cells and cell culture plates were imaged on the Operetta High Content Imaging and Analysis system (PerkinElmer). Analysis (PerkinElmer Harmony and Columbus software) began by identifying intact nuclei stained by DAPI. The peri-nuclear region of each cell was then cross-referenced with the mature myelin protein (MBP) stain to identify oligodendrocyte nuclei, and from this the percentage of oligodendrocytes was calculated. EC50 values were calculated using The Levenberg-Marquardt algorithm to fit a Hill equation to dose-response data (0.5 nM to 1000 nM).

Assay [3] addresses human emopamil binding protein and human 7-dehydrocholesterol reductase co-expressing cell membrane (Homo sapiens (Human), UniProt Q15125). As to the kind of experiment: hEBP-DHCR7 radioligand filtration binding assay with [3H]-Compound 118A*. The conditions noted are these: radioligand [3H]-Compound 118A*; HEK293 membrane co-expressing hEBP and DHCR7. On the procedure: Membrane Preparation: human emopamil binding protein and human 7-dehydrocholesterol reductase co-expressing cells were generated by transient transfecting host human embryonic kidney (HEK) 293 cells with 2 DNA constructs containing each protein's coding sequence. Cells were suspension cultured at 37° C. with 5% CO2 in […] 293 Expression Medium (Thermofisher). Whole cell membrane was prepared by harvesting the cell pellet, adding cold membrane buffer (50 mM Tris, pH7.5, 1× Roche COMPLETE EDTA-free protease inhibitor cocktail) 10 times volume of the cell pellets weight, lysing cell pellet on ice by using Dounce homogenizer, spinning at 200 g 4° C. for 15 min, collecting supernatant and spinning again at 25000 g 4° C. for 50 min, transferring pellet to Dounce homogenizer, re-suspending pellet by homogenizing in membrane buffer on ice to reach ˜25 mg/mL, then keeping whole cell membrane aliquots at −80° C.
Compounds were prepared in a 96-well U bottom plate using an Echo550 machine and 10 mM compound DMSO stock solution, followed by an 8-dose 5-fold serial dilutions protocol with final testing compound concentration ranging from 0.06 to 5000 nM, with DMSO back fill to 100 nL/well and n=2. […] The UniFilter-96 GF/B plates were pre-treated by adding 50 μl/well of 0.3% (v/v) PEI to UniFilter-96 GF/B plates. The plates were sealed and incubated at 4° C. for 3 hrs. Then, the plates were washed with ice-cold assay buffer 3 times. The radioligand binding assay was prepared by adding assay buffer diluted hEBP-DHCR7 membrane at 66.7 μg/ml x 150 μl/well into the 96-well compound plate to reach 10 μg membrane per well. Then, the assay buffer diluted [3H]-Compound 118A* was added at 25 nM×50 μl/well. Following this, the plate was centrifuged at 1000 rpm for 30 secs. The plate was then sealed and agitated at 600 rpm at 22° C. for 5 min, and then incubated at 22° C. for 3 hrs. The incubation was stopped by transferring the binding solution to the pre-treated UniFilter-96 GF/B plate, vacuum filtrated, and then washed four times with ice-cold assay buffer. Following this, the plates were dried at 37° C. for 45 min. The plates were then sealed at the bottom. 40 μl/well of scintillation cocktail was added to the plates. A MicroBeta2 microplate counter was then used to read the plate and analyze the data. For reference and test compounds, the results are expressed as % Inhibition, using the normalization equation: N=100-100×(U−C2)/(C1−C2), where U is the unknown value, C1 is the average of high controls, and C2 is the average value of low controls. The IC50 was determined by fitting percentage of inhibition as a function of compound concentrations with Hill equation using XLfit. Results are expressed as hEBP-DHCR7 Ki (uM) in Table 4. Ki was calculated as described above.

Sequence of human emopamil binding protein and human 7-dehydrocholesterol reductase co-expressing cell membrane (Q15125 whole entry): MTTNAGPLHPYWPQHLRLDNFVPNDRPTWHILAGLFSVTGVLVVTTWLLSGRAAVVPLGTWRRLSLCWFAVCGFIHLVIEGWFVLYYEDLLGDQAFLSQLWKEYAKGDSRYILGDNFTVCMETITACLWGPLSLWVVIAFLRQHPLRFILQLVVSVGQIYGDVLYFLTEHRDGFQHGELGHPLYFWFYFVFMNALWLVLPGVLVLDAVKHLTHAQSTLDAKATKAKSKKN

As for `C[C@H](Cc1ccc(C2(C)CC2)cc1)CN1CCC2(C1)CS(=O)(=O)C2` (single isomer, unassigned) [111B*], the values for the concentration for a half-maximal effect (EC50) in assay [1] and in assay [2] were 1.4 nM and 1.5 nM, respectively.

As to `C[C@@H](Cc1ccc(C2(C)CC2)cc1)CN1CCC2(C1)CS(=O)(=O)C2` (single isomer, unassigned) [111C*], the values for the EC50 in assay [1] and in assay [2] were 7.1 nM and 6.1 nM, respectively.

Regarding `C[C@@H](Cc1ccc(C2CCC(F)(F)CC2)c(Cl)c1)CN1CCC2(C1)CS(=O)(=O)C2` (single isomer, unassigned) [117A*], the Ki in assay [3] was determined as 9.43 nM. Moreover, the EC50 in assay [2] came to 1.5 nM.

In the case of `C[C@H](Cc1ccc(C(F)(F)F)nc1)CN1CC2(CCS(=O)(=O)CC2)C1` (single isomer, unassigned) [234A*], the concentration giving a half-maximal response (EC50) in assay [1] is 49 nM. Besides, in assay [3], the affinity corresponds to a Ki of 250 nM.

Take `C[C@@H](CN1CCC2(CC1)CS(=O)(=O)C2)Oc1ccc(C(F)(F)F)nc1` (single isomer, unassigned) [Example 207A*]: in assay [1], the concentration giving a half-maximal response (EC50) was 31 nM. Also, the affinity in assay [3] corresponds to a Ki of 33.6 nM.

Consider `O=S1(=O)CC2(CCN(CCOc3ccnc([C@H]4CC[C@@H](C(F)(F)F)CC4)c3)CC2)C1` [245A*, 7-(2-((2-((cis)-4-(Trifluoromethyl)cyclohexyl)pyridin-4-yl)oxy)ethyl)-2-thia-7-azaspiro[3.5]nonane 2,2-dioxide], for which, in assay [1], the 50% effective concentration (EC50) was 10.5 nM. For the same compound, the Ki in assay [3] worked out at 16 nM.

For the compound `O=S1(=O)CC2(CCN(CCOc3ccnc([C@H]4CC[C@H](C(F)(F)F)CC4)c3)CC2)C1` [245B*, 7-(2-((2-((trans)-4-(trifluoromethyl)cyclohexyl)pyridin-4-yl)oxy)ethyl)-2-thia-7-azaspiro[3.5]nonane 2,2-dioxide], the concentration for a half-maximal effect (EC50) in assay [1] was 8.37 nM. The compound also had an inhibition constant (Ki) in assay [3] of 19.7 nM.

On to `O=S1(=O)CC2(CCN(CCOc3ccc([C@H]4CC[C@@H](C(F)(F)F)CC4)nc3)CC2)C1` [247B*, 7-(2-((6-((cis)-4-(trifluoromethyl)cyclohexyl)pyridin-3-yl)oxy)ethyl)-2-thia-7-azaspiro[3.5]nonane 2,2-dioxide], for which the EC50 in assay [1] was 68.6 nM. The compound also had a Ki in assay [3] of 8.97 nM.

As to `CC(Cc1ccc(C(F)(F)F)cc1)CN1CCC2(C1)CS(=O)(=O)C2` (stereo not shown) [Compound 104, 6-(2-Methyl-3-(4-(trifluoromethyl)phenyl)propyl)-2-thia-6-azaspiro[3.4]octane 2,2-dioxide], the EC50 was determined as 0.48 nM in assay [1] and 1.7 nM in assay [2].

Regarding `O=S1(=O)CC2(CCN(CCCc3ccc(C(F)(F)F)cc3)C2)C1` [Compound 113, 6-(3-(4-(Trifluoromethyl)phenyl)propyl)-2-thia-6-azaspiro[3.4]octane-2,2-dioxide], the concentration for a half-maximal effect (EC50) in assay [1] was found to be 0.41 nM; in assay [2] it was 18 nM.

Turning to `CC(C)(CN1CCC2(CC1)CS(=O)(=O)C2)Oc1ccc(F)c(C(F)(F)F)c1` [Compound 220, 7-(2-(4-Fluoro-3-(trifluoromethyl)phenoxy)-2-methylpropyl)-2-thia-7-azaspiro[3.5]nonane 2,2-dioxide], the EC50 in assay [1] turned out to be 0.97 nM. The compound also had an inhibitory constant (Ki) in assay [3] of 11.9 nM.

As to `O=S1(=O)CC2(CCN(CCOc3ccc(-c4ccc(C(F)(F)F)nc4)nc3)CC2)C1` [Compound 241, 7-[2-[[6-[6-(Trifluoromethyl)-3-pyridyl]-3-pyridyl]oxy]ethyl]-26-thia-7-azaspiro[3.5]nonane 2,2-dioxide], the EC50 in assay [1] was 14.9 nM. The compound also came in with a Ki in assay [3] of 69 nM.

As to `O=S1(=O)CC2(CCN(CCOc3cnc(C(F)(F)F)c(Cl)c3)CC2)C1` [Compound 242, 7-[2-[[5-Chloro-6-(trifluoromethyl)-3-pyridyl]oxy]ethyl]-26-thia-7-azaspiro[3.5]nonane 2,2-dioxide], the EC50 was determined as 4.51 nM in assay [1] and 16.3 nM in assay [2].

As for `Cc1nc(C(F)(F)F)ccc1OCCN1CCC2(CC1)CS(=O)(=O)C2` [Compound 243, 7-[2-[[2-Methyl-6-(trifluoromethyl)-3-pyridyl]oxy]ethyl]-26-thia-7-azaspiro[3.5]nonane 2,2-dioxide], in assay [1], the EC50 worked out at 6.61 nM. This compound yielded a Ki in assay [3] of 53 nM.

As for `O=S1(=O)CC2(CCN(CCOc3cnc(C4CCCCC4)c(C(F)(F)F)c3)CC2)C1` [Compound 244, 7-(2-((6-Cyclohexyl-5-(trifluoromethyl)pyridin-3-yl)oxy)ethyl)-2-thia-7-azaspiro[3.5]nonane 2,2-dioxide], the half-maximal effective concentration (EC50) in assay [1] was 23.5 nM. Also, the Ki in assay [3] turned out to be 10.7 nM.

Take `CC(C)(Cc1ccc(C(F)(F)F)cc1)CN1CCC2(C1)CS(=O)(=O)C2` [Example 125, 6-(2,2-Dimethyl-3-(4-(trifluoromethyl)phenyl)propyl)-2-thia-6-azaspiro[3.4]octane-2,2-dioxide]: the EC50 in assay [1] is 0.62 nM; in assay [2], 0.72 nM.

With `CC(C)(CN1CCC2(CC1)CS(=O)(=O)C2)Oc1ccc(F)c(F)c1` [Example 156, 7-(2-(3,4-Difluorophenoxy)-2-methylpropyl)-2-thia-7-azaspiro[3.5]nonane 2,2-dioxide], in assay [1], the EC50 amounted to 1.5 nM. This compound showed a Ki in assay [3] of 13.9 nM.
